Measurements reported in patent US7195892B2, “Acylase gene” (Kaneka Corporation, priority 2002, dated 2007).

Tests used:
Type in all cases: biochemical
[1] = molecular target: T1, Escherichia coli PenG amidase (Escherichia coli, UniProt P06875); assay: Amoxycillin synthetic activity inhibition by PAA and PXA; conditions: for relative activity, amoxycillin synthesis amount with the substrate alone set at 100%: 30 mM KPB pH 6.0, 30° C., 1 hour; for inhibition of amoxycillin synthesis (in words): summary of Table 1
T1 construct: purchased Sigma
T1 sequence (P06875 290-846): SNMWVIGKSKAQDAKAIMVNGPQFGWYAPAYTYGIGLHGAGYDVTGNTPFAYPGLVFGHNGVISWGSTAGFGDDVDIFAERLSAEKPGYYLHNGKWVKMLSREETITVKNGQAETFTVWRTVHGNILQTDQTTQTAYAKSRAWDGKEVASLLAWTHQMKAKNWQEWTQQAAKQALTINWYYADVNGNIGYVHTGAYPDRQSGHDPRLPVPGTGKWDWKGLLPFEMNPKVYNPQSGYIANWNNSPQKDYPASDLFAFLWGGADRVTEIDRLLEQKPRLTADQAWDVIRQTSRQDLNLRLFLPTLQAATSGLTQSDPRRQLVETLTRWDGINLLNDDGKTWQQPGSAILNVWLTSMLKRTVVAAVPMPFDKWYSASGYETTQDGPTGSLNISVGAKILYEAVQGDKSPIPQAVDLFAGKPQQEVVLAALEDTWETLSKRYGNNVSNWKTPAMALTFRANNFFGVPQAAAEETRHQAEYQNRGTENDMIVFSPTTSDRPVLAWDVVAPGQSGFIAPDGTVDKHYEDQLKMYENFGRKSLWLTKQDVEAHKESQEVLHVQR
T1 sequence (P06875 27-235): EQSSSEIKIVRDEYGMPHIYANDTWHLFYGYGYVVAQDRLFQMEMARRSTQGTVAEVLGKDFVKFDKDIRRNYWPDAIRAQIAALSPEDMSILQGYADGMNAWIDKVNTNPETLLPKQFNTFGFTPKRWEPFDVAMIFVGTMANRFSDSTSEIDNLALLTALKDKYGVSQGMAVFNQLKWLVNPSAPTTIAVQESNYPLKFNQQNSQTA
Protocol: (§1) To 200 μl of a substrate solution prepared by dissolving 6-APA and HPGOMe-HCl in 30 mM KPB (pH 6.0) at the concentration of 0.5%, 10 μl of the enzyme solution obtained in (Examination Example 1) was added. PAA was added to be 0.3% and PXA was added to be 0.35%, and the mixture was subjected to reaction while shaking at 30° C. for 1 hour. Then, 1N HCl was added in 1/20 amount of the substrate to terminate the reaction. The generated amoxycillin was detected using HPLC. The result showing relative activity for the respective enzymes with the amoxycillin synthesis amount reacted by the substrate alone being set at 100% is shown in Table 1.

[2] = tested on: Stenotrophomonas maltophilia KNK12A strain-derived β-lactam acylase; assay: as above; conditions: for relative activity, amoxycillin synthesis amount with the substrate alone set at 100%: 30 mM KPB pH 6.0, 30° C., 1 hour; for inhibition of amoxycillin synthesis (in words): summary of Table 1
Protocol: as §1

[3] = Comparison of amoxycillin synthesis activity; conditions: 0.5% 6-APA and HPGOMe-HCl, pH 6.0, 30° C., 0-120 minutes; FIG. 3
Protocol: Amoxycillin synthesis activities of the Stenotrophomonas maltophilia KNK12A strain-derived β-lactam acylase and the known Escherichia coli PenG amidase (Sigma) were compared. As an enzyme solution, the fraction obtained in (Example 8) (enzyme concentration: about 3.2 ng/10 μl) was used for the Stenotrophomonas maltophilia KNK12A strain-derived β-lactam acylase, and 100-fold diluted solution (10.2 munit/10 μl, enzyme concentration: about 3.5 ng/10 μl) was used for Escherichia coli PenG amidase.
To 200 μl of a substrate solution prepared by dissolving 6-APA and HPGOMe-HCl in 30 mM KPB (pH 6.0) at the concentration of 0.5%, 10 μl of the enzyme solution was added and the mixture was subjected to reaction while shaking at 30° C. After the lapse of 0, 5, 10, 15, 30, 45, 60, 75, 90, 105 and 120 minutes from the start of the reaction, 1N HCl was added in 1/20 amount of the substrate solution to terminate the reaction. The generated amoxycillin was detected using HPLC.

[4] = Comparison of decomposition activity of HPGOMe; conditions: 0.5% HPGOMe-HCl, pH 6.0, 30° C., 1 hour; FIG. 5
Protocol: To 200 μl of a liquid prepared by dissolving HPGOMe-HCl in 30 mM KPB (pH 6.0) at the concentration of 0.5%, 10μ of the enzyme solution obtained in (Examination Example 1) was added, and the mixture was subjected to reaction while shaking at 30° C. for 1 hour. Then, 1N HCl was added in 1/20 amount of the substrate solution to terminate the reaction. The remained HPGOMe was detected using HPLC.

[5] = Decomposition activity of amoxycillin; conditions: 0.5% amoxycillin, pH 6.0, 30° C., 1 hour; FIG. 4
Protocol: (§2) To 200 μl of a solution prepared by dissolving amoxycillin in 30 mM KPB (pH 6.0) at the concentration of 0.5%, 10 μl of the enzyme solution obtained in (Examination Example 1) was added. The mixture was subjected to reaction for 1 hour while shaking at 30° C., and 1N HCl was added in 1/20 amount of the substrate solution to terminate the reaction.
as §2, with “a liquid” for “a solution”, “reaction” for “reaction for 1 hour”, “30° C. for 1 hour,” for “30° C.,”, “and then” for “and”, “reaction. The remained amoxycillin was detected using HPLC.” for “reaction.”

[6] = Capability comparison examination of a mutant acylase; conditions: compared with unmodified acylase
Protocol: A β-lactam acylase-producing strain pUCNTkmTn5-KNK-L/HB101 strain and 1 amino acid-substituted mutant β-lactam acylase-producing strain pUCNT-Tn5-MuKNK-L1/HB101 strain were inoculated in 10 ml of CM culture medium, and shaking culture was carried out at 37° C. overnight. Cells were recovered from 2 ml of the culture by centrifugation, and suspended in 30 mM KPB (pH 6.0). Then, 1 ml of a substrate (prepared by dissolving 0.5% HPGOMe-HCl and 0.5% 6-APA in 30 mM KPB and adjusted to pH 6.0) was mixed therewith, and the mixture was subjected to reaction at 30° C. After the lapse of 10, 20, 30, 60, 90 and 180 minutes from the start of the reaction, 1N HCl was added in 1/20 amount of the substrate solution to terminate the reaction. Then, the centrifuged supernatant was diluted to 25-fold with 30 mM KPB, and 10 μl thereof was analyzed by HPLC. The amoxycillin conversion efficiency comparison is shown in FIG. 6, and ester decomposition degree comparison of D-p-hydroxyphenylglycine methyl ester (HPGOMe) is shown in FIG. 7.

Molecule: O=C(O)COc1ccccc1 [PXA, Phenoxyacetic Acid]
- relative activity, amoxycillin synthesis amount with the substrate alone set at 100% ([1]; Substrate + 0.35% PXA): 0%
- inhibition of amoxycillin synthesis (in words) [1]: inhibited
- relative activity, amoxycillin synthesis amount with the substrate alone set at 100% ([2]; Substrate + 0.35% PXA): 76%
- inhibition of amoxycillin synthesis (in words) [2]: not inhibited at all, or even in the case there is inhibition, it is slight

Molecule: O=C(O)Cc1ccccc1 [PAA, Phenylacetic Acid]
- relative activity, amoxycillin synthesis amount with the substrate alone set at 100% ([1]; Substrate + 0.3% PAA): 0%
- inhibition of amoxycillin synthesis (in words) [1]: inhibited
- relative activity, amoxycillin synthesis amount with the substrate alone set at 100% ([2]; Substrate + 0.3% PAA): 107%
- inhibition of amoxycillin synthesis (in words) [2]: not inhibited at all, or even in the case there is inhibition, it is slight

B1: Stenotrophomonas maltophilia KNK12A strain-derived β-lactam acylase: β-lactam acylase of Stenotrophomonas maltophilia KNK12A, amino acid sequence SEQ ID NO:2, about 70 kDa (protein, listed as Stenotrophomonas maltophilia)
chain: MHVRAVAVAIALSLSSTVLAADTPPMTPDISGKPFIAPDVGRDYDKRVVMVPMRDGTRLYTVIVVPKGAHNAPILLTRTPYDAAGRASRSDSPRMRDLLPQGDEVFVDGGYIRVFQDIRGKYGSEGDYVMTRPLRGPLNNTKVDHSTDAWDTIDWLVKHVPESNGKVGMLGSSYEGFTVVMALTDPHPALKVAAPQSPMVDGWMGDDWLNYGAFRQVNFNYFAMQTEKRGKGTPLPSLGYDDYSTFLRIGSAGDYARFTGVDQLTWWKKLVQHPAYDGFWQGQALDAVMAKTPLKVPTMWLQGLWDQEDMWGANHAYQAMEGRDTGNTHNYLVMGPWRHSQVNYTGNELGALKFEGDTALQFRRDVLKPFFDQYLVDGAPKADTPPVLIYNTGENHWDRLQGWPRSCDKGCTAASKPLYLRAGGKLAFQAPAAGEGDFEEYVSDPAKPVPFVPRPVRFGDRDMWTTWLVKDQRFVDGRPDVLTFITEPLAEPLRIGGAPVVHLQASTSGTDSDWVVKLIDVYPDQEASTPEMGGYELPVSLAIFRGRYRESFSDPKPLAANQVLPYRFDLPNANHVFQKGHRVMVQVQSSLFPLYDRNPQTYVPNIYLAKPGDYQKATQRVWHSAAQASYVDLPVY
- amoxycillin synthesis conversion rate [3]: very high conversion rate as compared with Escherichia coli PenG amidase
- decomposition speed of HPGOMe [4]: faster than that of Escherichia coli PenG amidase
- amoxycillin decomposition speed [5]: slow

B2: mutant β-lactam acylase (protein, listed as Stenotrophomonas maltophilia)
chain: MHVRAVAVAIALSLSSTVLAADTPPMTPDISGKPFIAPDVGRDYDKRVVMVPMRDGTRLYTVIVVPKGAHNAPILLTRTPYDAAGRASRSDSPRMRDLLPQGDEVFVDGGYIRVFQDIRGKYGSEGDYVMTRPLRGPLNNTKVDHSTDAWDTIDWLVKHVPESNGKVGMLGSSYEGFTVVMALTDPHPALKVAAPQSPMVDGWVGDDWLNYGAFRQVNFNYFAMQTEKRGKGTPLPSLGYDDYSTFLRIGSAGDYARFTGVDQLTWWKKLVQHPAYDGFWQGQALDAVMAKTPLKVPTMWLQGLWDQEDMWGANHAYQAMEGRDTGNTHNYLVMGPWRHSQVNYTGNELGALKFEGDTALQFRRDVLKPFFDQYLVDGAPKADTPPVLIYNTGENHWDRLQGWPRSCDKGCTAASKPLYLRAGGKLAFQAPAAGEGDFEEYVSDPAKPVPFVPRPVRFGDRDMWTTWLVKDQRFVDGRPDVLTFITEPLAEPLRIGGAPVVHLQASTSGTDSDWVVKLIDVYPDQEASTPEMGGYELPVSLAIFRGRYRESFSDPKPLAANQVLPYRFDLPNANHVFQKGHRVMVQVQSSLFPLYDRNPQTYVPNIYLAKPGDYQKATQRVWHSAAQASYVDLPVY
- acylase activity ([6]; FIG. 6): enhanced
- ester decomposition activity of the substrate HPGOMe ([6]; FIG. 7): reduced
